Assay results taken from PMC7377239, “Cardiovascular Effects of Polychlorinated Biphenyls and Their Major Metabolites” (Environmental Health Perspectives, 2020).
Read-outs that look alike come from different tables or passages of the source.

Tests used:
[1] = system: HUVECs; experiment: High-content imaging cytotoxicity in HUVECs, 24 h; format: cell-based, human; conditions: Homo sapiens, HUVEC, 24 h, HUVEC, 24 hr
Summary of the method: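 Confluent HUVEC monolayers, passages 1–5, received test chemicals for 24 h. Cytotoxicity was scored from triple-stain high-content images, with PODs defined by a one-SD deviation from 0.5% DMSO vehicle controls.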

[2] = system: iCell cardiomyocytes (human iPSC-derived cardiomyocytes); experiment: High-content imaging of cytotoxicity and mitochondrial integrity in iPSC-CMs; format: cell-based; conditions: Homo sapiens, Cardiomyocyte, cardiomyocytes (cm)
Summary of the method: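 Cardiomyocytes grown on gelatinized 384-well plates received fresh medium on the experiment day and were then exposed to chemicals at 0.01–100μM. Nuclei and mitochondria were labeled with Hoechst 33342 and MitoTracker™ Orange, then fixed, and imaged on an ImageXpress® Micro Confocal system. Four-parameter logistic concentration–response fits in R, with a one-standard-deviation vehicle cutoff, gave point-of-departure values.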

In the case of `Oc1cc(Cl)c(-c2cc(Cl)ccc2Cl)cc1Cl` [4-OH-PCB 52], the minimal effective concentration ([1]; cyto, read-out: POD huvec.cyto.24hr) is reported as 1 µM, the minimal effective concentration ([1]; mito, read-out: POD huvec.mito.24hr) is reported as 1.1 µM and the minimal effective concentration ([1]; mitoint, read-out: POD huvec.mitoint.24hr) is reported as 2.32 µM. For the same compound, the minimal effective concentration ([1]; nma, read-out: POD huvec.nma.24hr) was 100 µM, the minimal effective concentration ([1]; tc, read-out: POD huvec.tc.24hr) was 1 µM and the minimal effective concentration ([2]; 1.5 h, cam, 90 min, read-out: POD cm.cam.90min) was 8.86 µM. The minimal effective concentration ([2]; 1.5 h, mii, 90 min, read-out: POD cm.mii.90min) was 45.7 µM, the minimal effective concentration ([2]; 1.5 h, mito, 90 min, read-out: POD cm.mito.90min) was 8.61 µM and the minimal effective concentration ([2]; 1.5 h, tc, 90 min, read-out: POD cm.tc.90min) was 8.75 µM. It also gave a minimal effective concentration ([2]; 24 h, cam, 24 hrs, read-out: POD cm.cam.24hrs) of 32.7 µM, a minimal effective concentration ([2]; 24 h, mii, 24 hrs, read-out: POD cm.mii.24hrs) of 65.1 µM and a minimal effective concentration ([2]; 24 h, mito, 24 hrs, read-out: POD cm.mito.24hrs) of 36.7 µM. The minimal effective concentration ([2]; 24 h, tc, 24 hrs, read-out: POD cm.tc.24hrs) was 41.4 µM.
